Consider 44 molecules from patent US20130158035A1, “[…] COMPOUNDS” (Brigham Young University, priority 2010, published 2013).

Bounds are passed on as bounds.

One experiment has as its system MDCK cells. Nature of the experiment: HGF-induced epithelial-mesenchymal transition / migration of MDCK cells on transwell filters (crystal violet densitometry). It counts as cell-based. The following applies: Canis lupus familiaris, MDCK, 24 h, Table 3, 10 μM compound, then HGF, percentage like untreated controls (unstimulated cells = maximal effect, HGF only = nil).
In the case of `NC(=O)c1ccccc1/N=C/c1ccc(Br)s1` [Compound A-12], testing at 10 µM gave an inhibition of 17.5%. The same measure, in the same setting: next, `NC(=O)c1ccccc1/N=C/c1ccco1` [Compound A-11]: 27.9%; `NC(=O)c1ccccc1/N=C/c1ccc(Cl)cc1Cl` [Compound A-18]: less than 5%; `NC(=O)c1ccccc1/N=C/c1cccc2ccccc12` [Compound A-3]: 87.8%. Molecule `NC(=O)c1ccccc1/N=C/c1cccc(Cl)c1Cl` [Compound A-1] came in with an inhibition at 10 µM of 94%.

Staying with this experiment, now noted: Canis lupus familiaris, MDCK, 24 h, Table 4, 10 μM compound, then HGF, percentage like untreated controls (unstimulated cells = maximal effect, HGF only = nil).
`O=C(Nc1ncc(Br)cc1Br)c1cccc([N+](=O)[O-])c1` [Compound B-12]: the inhibition at 10 µM was 42.4%. On the same count and under the same terms, under `Cc1nc(NC(=O)c2cc([N+](=O)[O-])ccc2N2CCOCC2)ccc1I` [Compound B-4] stands 31.7%.

The same experiment, now with this note: Canis lupus familiaris, MDCK, 24 h, Table 5, 10 μM compound, then HGF, percentage like untreated controls (unstimulated cells = maximal effect, HGF only = nil).
With `COc1ccc(C(=O)c2cc([N+](=O)[O-])ccc2N2CCOCC2)cc1` [Compound B-34], the inhibition at 10 µM stood at 93.4%. The same measure, in the same setting: next, `Cc1cc(NC(=O)c2ccc(C)c([N+](=O)[O-])c2)c(C)cc1I` [Compound B-33]: 56.9%. The same measure, in the same setting: next, `COc1cc(C(=O)Nc2ccc(N(C)C)cc2)cc(OC)c1OC` [Compound B-22]: more than 5%.

The experiment is the same for the next values; noted with them: Canis lupus familiaris, MDCK, 24 h, Table 6, 10 μM compound, then HGF, percentage like untreated controls (unstimulated cells = maximal effect, HGF only = nil).
As to `Cc1c(C(=O)OC(C)C)[nH]c2c1C(=O)CC(c1cccs1)C2` (centres unmarked) [Compound C-7], 10 µM produced 35.9% inhibition. Take `Cc1c(C(=O)OCC2CCCO2)[nH]c2c1C(=O)CC(c1cccs1)C2` (centres unmarked) [Compound C-17]: testing at 10 µM gave an inhibition of 75.7%. Same read-out and setting: next, `Cc1c(C(=O)OC2CCCC2C)[nH]c2c1C(=O)CC(c1cccs1)C2` (centres unmarked) [Compound C-18]: 92.2%. The same measure, in the same setting: under `COC(=O)c1[nH]c2c(c1C)C(=O)CC(c1cccs1)C2` (centres unmarked) [Compound C-3] stands 84.1%; under `Cc1c(C(=O)OC2CCCCC2)[nH]c2c1C(=O)CC(c1cccs1)C2` (centres unmarked) [Compound C-11], less than 5%.

The same experiment, now with this note: Table 1; 10 μM compound, then HGF, 24 hours; percentage like untreated controls (unstimulated cells = maximal effect, HGF only = nil).
Take `COc1cc(C2CC(=O)Nc3cc4c(cc32)OCCO4)cc(Br)c1OC` (centres unmarked) [Compound 6]: the “Assay Value” was found to be 52.2%.

`Cc1ccc(C)c(C2CC(=O)Nc3cc4c(cc32)OCCO4)c1` (centres unmarked) [Compound 14]: the “Assay Value” was 8.8%.

Consider `COc1ccc(C2CC(=O)Nc3cc4c(cc32)OCCO4)cc1OC` (centres unmarked) [Compound 15], for which the “Assay Value” is listed as 12.9%. The same measure, in the same setting: under `COc1ccc(OC)c(C2CC(=O)Nc3cc4c(cc32)OCCO4)c1` (centres unmarked) [Compound 16] stands 15.1%. On to `COc1cc2c(cc1OC)C(c1cccc(Cl)c1Cl)CC(=O)N2` (centres unmarked) [Compound 13], for which the “Assay Value” is more than 5%. On the same count and under the same terms, next, `COc1cc(C2CC(=O)Nc3cc4c(cc32)OCCO4)cc(OC)c1O` (centres unmarked) [Compound 32]: 88.2%; `COc1cc(Br)c(C2CC(=O)Nc3cc4c(cc32)OCCO4)cc1OC` (centres unmarked) [Compound 5]: 29.3%. Same read-out and setting: next, `O=C1CC(c2cc(Br)ccc2F)c2cc3c(cc2N1)OCCO3` (centres unmarked) [Compound 11]: 27.9%; `COc1ccc(C2CC(=O)Nc3cc4c(cc32)OCCO4)cc1` (centres unmarked) [Compound 24]: 100%; `COc1cccc(C2CC(=O)Nc3cc4c(cc32)OCCO4)c1` (centres unmarked) [Compound 17]: 10.7%.

Still in this experiment, the particulars now being: Table 2; 10 μM compound, then HGF, 24 hours; percentage like untreated controls (unstimulated cells = maximal effect, HGF only = nil).
On to `O=C1CC(c2ccc(O)cc2)c2cc3c(cc2N1)OCO3` (centres unmarked) [Compound 76], for which the “Assay Value” is recorded as less than 5%. Same read-out and setting: next, `COc1cc2c(cc1OC)C(c1cc(Br)c(OC)c(OC)c1)CC(=O)N2` (centres unmarked) [Compound 52]: less than 5%. On the same count and under the same terms, next, `O=C1CC(c2cccc(OCc3ccccc3)c2)c2cc3c(cc2N1)OCCO3` (centres unmarked) [Compound 58]: less than 5%; `COc1cccc(C2CC(=O)Nc3cc4c(cc32)CCC4)c1OC` (centres unmarked) [Compound 92]: less than 5%; `COc1cc2c(cc1OC)C(c1cc(OC)c(OC)cc1OC)CC(=O)N2` (centres unmarked) [Compound 65]: less than 5%.

As to `O=C1CC(c2cccc(F)c2)c2cc3c(cc2N1)OCCO3` (centres unmarked) [Compound 44], the “Assay Value” was less than 5%. With `CCOc1cc2c(cc1OCC)C(c1ccccc1F)CC(=O)N2` (centres unmarked) [Compound 74], the “Assay Value” is less than 5%. Same read-out and setting: next, `CC(C)Oc1ccc(C2CC(=O)Nc3cc4c(cc32)OCCO4)cc1` (centres unmarked) [Compound 73]: less than 5%; `CN(C)c1ccc(C2CC(=O)Nc3cc4c(cc32)OCO4)cc1` (centres unmarked) [Compound 80]: less than 5%; `O=C1CC(c2cccc(Br)c2)c2cc3c(cc2N1)CCC3` (centres unmarked) [Compound 95]: less than 5%.

On to `COc1cc2c(cc1OC)C(c1cccc(Cl)c1)CC(=O)N2` (centres unmarked) [Compound 41], for which the “Assay Value” was less than 5%.

For the molecule `CCOc1ccccc1C1CC(=O)Nc2cc(OC)c(OC)cc21` (centres unmarked) [Compound 61], the “Assay Value” is less than 5%. Same read-out and setting: next, `CCCOc1ccc(C2CC(=O)Nc3cc(OC)c(OC)cc32)cc1` (centres unmarked) [Compound 43]: less than 5%; `COc1cc(Br)c(C2CC(=O)Nc3cc(OC)c(OC)cc32)cc1OC` (centres unmarked) [Compound 48]: less than 5%; `O=C1CC(c2cc(F)cc(F)c2)c2cc3c(cc2N1)OCO3` (centres unmarked) [Compound 77]: less than 5%.

Take `O=C1CC(c2ccccc2F)c2cc3c(cc2N1)OCCO3` (centres unmarked) [Compound 69]: the “Assay Value” is on record as less than 5%.

`COc1cc2c(cc1OC)C(c1cc(C)ccc1C)CC(=O)N2` (centres unmarked) [Compound 57]: the “Assay Value” was less than 5%.

Still in this experiment, the particulars now being: Table 4; 10 μM compound, then HGF, 24 hours; percentage like untreated controls (unstimulated cells = maximal effect, HGF only = nil).
As for `Cc1nc(NC(=O)c2ccc(N3CCOCC3)c([N+](=O)[O-])c2)ccc1I` [Compound B-13], the “Assay Value” worked out at 29.4%.

In the case of `Cc1nc(NC(=O)COc2ccc([N+](=O)[O-])cc2)ccc1Br` [Compound B-1], the “Assay Value” worked out at 97.1%.
